One data set concerns HT-29. Put plainly: Induction of cell cycle arrest in human HT-29 cells assessed as increase in number of cells at sub-G1 phase with DNA hypodiploid at 100 uM incubated for 72 hrs by PI-staining based flow cytometry (Rvb=2%). In kind it is functional. (In flow cytometry, cells or beads pass a laser one at a time.)
Data set [1] relates to HCT-116. Kind of data set: Downregulation of HOXA9A mRNA expression in human HCT-116 cells at 100 uM incubated for 48 hrs by qRT-PCR analysis. The data set is classed as functional, cell-based.
Data set [2] concerns HeLa. Kind of data set: Induction of autophagy in human HeLa cells stably expressing EGFP-LC3 assessed as change in LC3-II/LC3-I ratio at 10 to 100 uM incubated for 48 hrs by Western blot analysis. Conditions: dose 10-100 µM. The data set is classed as functional, cell-based.
A short description of data set [3]: Cytotoxicity against human primary lung fibroblast assessed as inhibition of cell viability at 25 to 200 uM incubated for 72 hrs by MTT assay. The data set is classed as toxicity, cell-based. The conditions noted are these: dose 25-200 µM. On the technique in general: Formazan colour is commonly taken as a measure of viable cells.
Data set [4] addresses T1, Histone acetyltransferase KAT8 (Homo sapiens) (UniProt Q9H7Z6).
T1 sequence (whole entry): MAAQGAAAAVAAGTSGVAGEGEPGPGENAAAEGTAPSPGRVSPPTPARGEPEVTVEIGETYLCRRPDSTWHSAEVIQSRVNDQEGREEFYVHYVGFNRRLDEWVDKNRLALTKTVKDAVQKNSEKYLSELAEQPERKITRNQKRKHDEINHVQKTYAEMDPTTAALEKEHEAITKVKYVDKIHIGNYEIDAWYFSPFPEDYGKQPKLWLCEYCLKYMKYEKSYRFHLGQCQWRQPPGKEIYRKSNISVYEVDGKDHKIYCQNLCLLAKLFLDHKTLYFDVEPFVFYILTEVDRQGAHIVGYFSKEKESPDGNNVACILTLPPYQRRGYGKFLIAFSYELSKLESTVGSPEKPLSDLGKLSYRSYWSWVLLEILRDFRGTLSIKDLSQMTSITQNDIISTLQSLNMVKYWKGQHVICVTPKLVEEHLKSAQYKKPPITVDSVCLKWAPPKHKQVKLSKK
Kind of data set: Inhibition of human KAT8 in human HT-29 cells assessed as decrease in histone H4K16 acetylation level by measuring fluorescence intensity in nucleus at 50 uM incubated for 24 hrs by DAPI staining based immunofluorescence analysis. In kind it is cell-based.

The subject of data set [5] is HeLa. Put plainly: Induction of autophagy in human HeLa cells stably expressing EGFP-LC3 assessed as increase in p62 expression level at 10 to 100 uM incubated for 48 hrs by Western blot analysis. The conditions noted are these: dose 10-100 µM. In kind it is functional, cell-based. Background: Immunoblotting shows a protein as a band on a membrane.
Data set [6] relates to HCT-116. Kind of data set: Effect on cell cycle progression in human HCT-116 cells assessed as changes in cell cycle stages at 50 to 100 uM incubated for 72 hrs by PI-staining based flow cytometry. The data set is classed as functional. Conditions: dose 50-100 µM.
Data set [7] has as its system HeLa. Kind of data set: Induction of apoptosis in human HeLa cells assessed as slight increase in apoptotic cells at 50 to 100 uM incubated for 72 hrs by Annexin V-FITC staining based flow cytometry. In kind it is functional, cell-based. Conditions: dose 50-100 µM.
In data set [8] the target is Histone acetyltransferase p300 (Homo sapiens) (UniProt Q09472). Kind of data set: Inhibition of recombinant human KAT3B (1287 to 1673 residues) using histone H3 peptide and [3H]-acetyl-coA as substrates at 200 uM incubated for 1 hrs by liquid scintillation counter analysis.
Histone acetyltransferase p300 (Homo sapiens), sequence (Q09472 whole entry, the tested form may be a part): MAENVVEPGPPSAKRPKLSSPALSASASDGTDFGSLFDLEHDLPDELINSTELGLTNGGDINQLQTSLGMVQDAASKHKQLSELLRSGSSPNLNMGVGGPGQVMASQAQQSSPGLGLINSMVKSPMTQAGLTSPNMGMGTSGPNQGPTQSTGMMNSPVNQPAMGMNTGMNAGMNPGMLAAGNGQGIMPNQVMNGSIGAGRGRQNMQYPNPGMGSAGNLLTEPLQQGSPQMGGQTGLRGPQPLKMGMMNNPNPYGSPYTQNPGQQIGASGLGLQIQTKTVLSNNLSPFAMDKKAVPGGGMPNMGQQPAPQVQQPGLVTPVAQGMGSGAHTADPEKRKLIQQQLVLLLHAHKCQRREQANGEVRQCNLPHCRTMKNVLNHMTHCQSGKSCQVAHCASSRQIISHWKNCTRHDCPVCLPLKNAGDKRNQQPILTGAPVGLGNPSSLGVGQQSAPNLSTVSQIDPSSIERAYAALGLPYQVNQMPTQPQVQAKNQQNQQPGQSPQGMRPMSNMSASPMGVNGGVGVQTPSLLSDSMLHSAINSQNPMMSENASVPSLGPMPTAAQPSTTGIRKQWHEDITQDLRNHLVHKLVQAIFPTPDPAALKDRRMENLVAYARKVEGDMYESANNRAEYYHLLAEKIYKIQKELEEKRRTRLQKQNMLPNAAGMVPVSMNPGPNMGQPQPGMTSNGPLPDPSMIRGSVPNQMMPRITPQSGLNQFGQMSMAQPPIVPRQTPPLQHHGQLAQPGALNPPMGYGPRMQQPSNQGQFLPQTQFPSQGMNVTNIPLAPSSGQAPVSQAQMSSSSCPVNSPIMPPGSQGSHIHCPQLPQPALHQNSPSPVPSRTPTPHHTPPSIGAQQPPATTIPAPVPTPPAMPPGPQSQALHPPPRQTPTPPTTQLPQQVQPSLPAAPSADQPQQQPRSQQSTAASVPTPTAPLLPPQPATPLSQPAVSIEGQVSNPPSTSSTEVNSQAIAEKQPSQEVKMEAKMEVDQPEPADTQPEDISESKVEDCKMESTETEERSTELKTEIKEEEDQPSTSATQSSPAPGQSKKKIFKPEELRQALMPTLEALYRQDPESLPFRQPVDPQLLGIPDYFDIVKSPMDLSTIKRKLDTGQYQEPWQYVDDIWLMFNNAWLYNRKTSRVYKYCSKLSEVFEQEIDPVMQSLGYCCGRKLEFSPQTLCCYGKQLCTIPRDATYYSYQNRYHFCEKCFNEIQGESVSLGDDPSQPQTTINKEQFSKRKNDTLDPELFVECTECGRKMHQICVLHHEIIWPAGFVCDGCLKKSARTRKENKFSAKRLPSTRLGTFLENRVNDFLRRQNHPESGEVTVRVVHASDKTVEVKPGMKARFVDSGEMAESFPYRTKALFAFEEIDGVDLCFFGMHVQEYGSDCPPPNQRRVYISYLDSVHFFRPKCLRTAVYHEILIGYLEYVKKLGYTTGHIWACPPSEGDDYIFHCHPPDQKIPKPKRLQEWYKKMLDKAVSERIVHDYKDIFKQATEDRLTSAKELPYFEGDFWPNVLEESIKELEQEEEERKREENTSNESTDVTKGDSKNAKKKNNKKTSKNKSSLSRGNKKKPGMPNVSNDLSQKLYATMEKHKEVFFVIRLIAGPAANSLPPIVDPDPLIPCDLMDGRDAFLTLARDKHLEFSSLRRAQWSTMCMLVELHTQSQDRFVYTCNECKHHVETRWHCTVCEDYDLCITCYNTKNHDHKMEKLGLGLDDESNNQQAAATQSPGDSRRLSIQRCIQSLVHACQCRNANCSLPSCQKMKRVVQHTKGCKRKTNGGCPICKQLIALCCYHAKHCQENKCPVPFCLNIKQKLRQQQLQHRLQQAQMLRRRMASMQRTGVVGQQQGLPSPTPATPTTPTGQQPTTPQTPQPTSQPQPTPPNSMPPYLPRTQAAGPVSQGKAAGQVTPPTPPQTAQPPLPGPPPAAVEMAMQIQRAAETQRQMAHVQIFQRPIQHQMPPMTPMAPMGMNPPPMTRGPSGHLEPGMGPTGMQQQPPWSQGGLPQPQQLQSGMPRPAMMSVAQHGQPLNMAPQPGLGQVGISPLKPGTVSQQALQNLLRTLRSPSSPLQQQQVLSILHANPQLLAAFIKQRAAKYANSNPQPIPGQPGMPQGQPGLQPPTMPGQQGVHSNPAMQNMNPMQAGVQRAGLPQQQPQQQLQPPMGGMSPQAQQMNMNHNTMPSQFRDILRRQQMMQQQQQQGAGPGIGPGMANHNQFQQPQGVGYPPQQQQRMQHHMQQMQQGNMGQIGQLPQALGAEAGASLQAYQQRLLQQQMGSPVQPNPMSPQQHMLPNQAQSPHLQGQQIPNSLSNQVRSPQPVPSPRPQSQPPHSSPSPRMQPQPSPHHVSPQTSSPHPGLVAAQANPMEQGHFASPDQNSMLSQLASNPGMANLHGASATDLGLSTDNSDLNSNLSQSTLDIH
The target in data set [9] is T1, Histone acetyltransferase KAT8 (Homo sapiens). Put plainly: Inhibition of human KAT8 in human HT-29 cells assessed as decrease in histone H4K16 acetylation level at 10 to 50 uM incubated for 24 hrs by Western blot analysis. In kind it is cell-based. The conditions noted are these: dose 10-50 µM.
In data set [10] the target is Histone acetyltransferase KAT6A (Homo sapiens) (UniProt Q92794). Kind of data set: Inhibition of recombinant human KAT6A (488 to 778 residues) using histone H3 peptide and [3H]-acetyl-coA as substrates at 200 uM incubated for 1 hrs by liquid scintillation counter analysis.
Histone acetyltransferase KAT6A (Homo sapiens), sequence (Q92794 whole entry, looked up, the tested form may be a part): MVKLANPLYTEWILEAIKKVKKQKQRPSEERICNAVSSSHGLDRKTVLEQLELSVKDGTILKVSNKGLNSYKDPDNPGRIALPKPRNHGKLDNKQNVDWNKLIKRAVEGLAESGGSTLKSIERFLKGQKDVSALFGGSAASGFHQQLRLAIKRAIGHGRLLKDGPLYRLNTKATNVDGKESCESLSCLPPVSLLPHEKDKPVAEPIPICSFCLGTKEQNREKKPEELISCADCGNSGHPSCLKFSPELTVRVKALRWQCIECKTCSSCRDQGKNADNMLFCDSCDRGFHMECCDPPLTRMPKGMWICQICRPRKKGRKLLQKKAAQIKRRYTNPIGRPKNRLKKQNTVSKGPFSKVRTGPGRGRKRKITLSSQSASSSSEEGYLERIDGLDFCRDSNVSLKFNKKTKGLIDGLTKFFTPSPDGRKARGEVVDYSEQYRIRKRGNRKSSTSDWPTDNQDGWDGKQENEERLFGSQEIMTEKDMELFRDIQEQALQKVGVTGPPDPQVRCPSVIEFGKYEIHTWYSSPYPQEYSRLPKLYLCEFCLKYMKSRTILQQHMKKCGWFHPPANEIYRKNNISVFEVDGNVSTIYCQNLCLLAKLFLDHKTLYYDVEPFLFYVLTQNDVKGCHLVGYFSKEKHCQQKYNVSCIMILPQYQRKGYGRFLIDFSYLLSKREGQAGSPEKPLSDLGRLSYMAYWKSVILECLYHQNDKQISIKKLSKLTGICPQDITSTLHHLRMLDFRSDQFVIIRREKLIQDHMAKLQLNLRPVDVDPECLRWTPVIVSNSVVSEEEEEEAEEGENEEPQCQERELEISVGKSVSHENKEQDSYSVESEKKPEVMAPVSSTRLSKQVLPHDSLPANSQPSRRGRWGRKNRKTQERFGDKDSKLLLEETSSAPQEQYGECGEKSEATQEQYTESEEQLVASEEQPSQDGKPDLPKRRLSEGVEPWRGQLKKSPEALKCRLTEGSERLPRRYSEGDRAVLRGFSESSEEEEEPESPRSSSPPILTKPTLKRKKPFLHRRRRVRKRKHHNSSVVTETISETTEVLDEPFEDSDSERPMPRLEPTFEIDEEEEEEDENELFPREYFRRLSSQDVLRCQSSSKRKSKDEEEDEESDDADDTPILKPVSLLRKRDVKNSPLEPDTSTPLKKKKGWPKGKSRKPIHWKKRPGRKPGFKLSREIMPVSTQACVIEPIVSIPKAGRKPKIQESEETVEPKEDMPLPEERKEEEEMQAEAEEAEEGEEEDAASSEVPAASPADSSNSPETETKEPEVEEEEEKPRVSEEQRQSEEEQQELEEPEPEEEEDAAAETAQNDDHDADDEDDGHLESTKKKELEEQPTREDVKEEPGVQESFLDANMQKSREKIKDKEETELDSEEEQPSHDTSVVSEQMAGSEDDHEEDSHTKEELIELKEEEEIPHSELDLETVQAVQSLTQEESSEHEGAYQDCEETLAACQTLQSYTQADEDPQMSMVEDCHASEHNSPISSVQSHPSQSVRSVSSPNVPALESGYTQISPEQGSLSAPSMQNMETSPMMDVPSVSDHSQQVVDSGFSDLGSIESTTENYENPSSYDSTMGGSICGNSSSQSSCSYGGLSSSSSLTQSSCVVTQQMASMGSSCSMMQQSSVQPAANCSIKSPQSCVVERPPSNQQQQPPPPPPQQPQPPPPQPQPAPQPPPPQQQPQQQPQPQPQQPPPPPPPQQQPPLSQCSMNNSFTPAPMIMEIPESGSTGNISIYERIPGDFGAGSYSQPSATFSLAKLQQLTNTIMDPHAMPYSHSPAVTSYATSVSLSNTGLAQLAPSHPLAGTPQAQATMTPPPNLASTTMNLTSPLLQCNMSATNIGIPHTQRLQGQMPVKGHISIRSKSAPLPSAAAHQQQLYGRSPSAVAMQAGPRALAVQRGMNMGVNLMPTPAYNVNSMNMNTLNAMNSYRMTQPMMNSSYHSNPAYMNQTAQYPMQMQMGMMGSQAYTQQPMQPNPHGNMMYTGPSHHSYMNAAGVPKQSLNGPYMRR
Data set [11] addresses Histone acetyltransferase KAT7 (Homo sapiens) (UniProt O95251). Kind of data set: Inhibition of recombinant human full length KAT7 using histone H3 peptide and [3H]-acetyl-coA as substrates at 200 uM incubated for 1 hrs by liquid scintillation counter analysis.
Data set [12] has as its system HCT-116. Kind of data set: Antiproliferative activity against human HCT-116 cells assessed as cell proliferation inhibition at 100 uM incubated for 72 hrs by MTT assay. The data set is classed as functional. On the set-up: scale not given: the % may be the effect or the level left.

The source made the active and inactive calls. No cut-off for these calls is given here.

Results on two molecules are retold here after ChEMBL document CHEMBL5338773, “First-in-Class Selective Inhibitors of the Lysine Acetyltransferase KAT8” (J Med Chem, 2023).

Histone acetyltransferase KAT7 (Homo sapiens), sequence (O95251 whole entry): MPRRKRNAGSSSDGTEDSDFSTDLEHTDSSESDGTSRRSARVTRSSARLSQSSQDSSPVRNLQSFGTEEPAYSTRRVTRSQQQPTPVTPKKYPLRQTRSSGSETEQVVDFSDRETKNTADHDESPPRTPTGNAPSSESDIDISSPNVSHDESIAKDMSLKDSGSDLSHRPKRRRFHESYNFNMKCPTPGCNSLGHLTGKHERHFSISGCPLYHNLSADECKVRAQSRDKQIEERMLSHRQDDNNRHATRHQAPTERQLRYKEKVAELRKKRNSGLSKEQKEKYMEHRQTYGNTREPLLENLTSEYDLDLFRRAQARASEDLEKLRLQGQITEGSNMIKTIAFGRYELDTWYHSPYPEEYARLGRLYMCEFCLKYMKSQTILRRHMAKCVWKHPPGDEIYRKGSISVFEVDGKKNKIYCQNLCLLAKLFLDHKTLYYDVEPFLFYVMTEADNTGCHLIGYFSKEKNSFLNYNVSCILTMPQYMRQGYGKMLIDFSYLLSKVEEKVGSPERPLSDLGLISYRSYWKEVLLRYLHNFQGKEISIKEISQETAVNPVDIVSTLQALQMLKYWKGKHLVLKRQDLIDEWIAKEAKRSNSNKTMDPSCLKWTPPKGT

Broadly, the inhibition is the drop in the measured response relative to a control, in per cent. As for `O=C(O)c1ccc(N2N=C(c3ccccc3)/C(=C/c3ccc[nH]3)C2=O)cc1`, the Activity in the data set on HT-29 was 14%; in data set [3], “Non-Toxic”. Moreover, the outcome in the data set with HCT-116 [1], in the data set with HeLa [2], in the data set on HeLa [5] and with HeLa [7] was Active. In data set [4], the inhibition was over 50%. Moreover, the result in the data set on HCT-116 [6] was inactive. Moreover, the inhibition entry in data set [8] is “inactive”. Further, the inhibition result in data set [9] was “Active”.
In the case of `CC1=NN(c2ccc(C(=O)O)cc2)C(=O)/C1=C\c1ccc[nH]1`, the Activity in the data set with HT-29 is recorded as 15%; in data set [3], “Non-Toxic”; in the data set on HCT-116 [12] it was over 80%. Besides, the inhibition result in data set [10], in [11] and in data set [8] was “inactive” in each case. Further, the result in the data set on HCT-116 [6] was inactive. Also, the outcome in the data set on HeLa [7] was Active. Moreover, the inhibition entry in data set [9] is “Active”.
